Experimental data: ChEMBL document CHEMBL4507262, “Data for DCP probe A-1596586” (2021)

Tests used:
[1] = biological target: Death-associated protein kinase 1 (Homo sapiens) (UniProt P53355); conditions: Compound concentration 1000.0 nM
[2] = test system: Phosphatidylinositol 4,5-bisphosphate 3-kinase catalytic subunit alpha isoform (Homo sapiens), P42336 [E545K]; conditions: Compound concentration 1000.0 nM
[3] = biological target: NUAK family SNF1-like kinase 1 (Homo sapiens) (UniProt O60285); conditions: Compound concentration 1000.0 nM
[4] = biological target: SNF-related serine/threonine-protein kinase (Homo sapiens) (UniProt Q9NRH2); conditions: Compound concentration 1000.0 nM
[5] = biological target: T1, Alpha-1B adrenergic receptor (Homo sapiens) (UniProt P35368); assay: Alpha1B (h) Eurofins-Cerep binding assay; conditions: filed as antagonist, Compound concentration 10.0 uM
T1 sequence (whole entry): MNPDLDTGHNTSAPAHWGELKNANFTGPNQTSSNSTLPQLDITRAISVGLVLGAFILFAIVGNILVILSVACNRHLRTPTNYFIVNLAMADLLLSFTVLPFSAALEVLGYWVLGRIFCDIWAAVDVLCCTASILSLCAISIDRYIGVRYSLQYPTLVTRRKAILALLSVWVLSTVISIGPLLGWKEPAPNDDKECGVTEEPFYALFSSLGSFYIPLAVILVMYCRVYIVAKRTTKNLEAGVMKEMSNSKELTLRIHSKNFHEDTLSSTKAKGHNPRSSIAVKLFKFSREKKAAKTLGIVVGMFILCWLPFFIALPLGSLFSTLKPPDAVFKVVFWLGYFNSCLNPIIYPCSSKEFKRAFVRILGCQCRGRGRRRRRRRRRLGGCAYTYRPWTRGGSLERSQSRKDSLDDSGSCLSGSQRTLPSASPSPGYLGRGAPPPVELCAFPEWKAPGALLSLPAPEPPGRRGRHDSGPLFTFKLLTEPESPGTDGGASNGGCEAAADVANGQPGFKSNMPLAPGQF

[6] = test system: Receptor-type tyrosine-protein kinase FLT3 (Homo sapiens), P36888 [R834Q]; conditions: Compound concentration 1000.0 nM
[7] = biological target: Mitogen-activated protein kinase 12 (Homo sapiens) (UniProt P53778); conditions: Compound concentration 1000.0 nM
[8] = biological target: Homeodomain-interacting protein kinase 3 (Homo sapiens) (UniProt Q9H422); conditions: Compound concentration 1000.0 nM
[9] = biological target: Vascular endothelial growth factor receptor 2 (Homo sapiens) (UniProt P35968); conditions: Compound concentration 1000.0 nM
[10] = biological target: Dual specificity mitogen-activated protein kinase kinase 5 (Homo sapiens) (UniProt Q13163); conditions: Compound concentration 1000.0 nM
[11] = biological target: Calcitonin-gene-related peptide receptor, CALCRL/RAMP1 (Homo sapiens) (UniProt O60894+Q16602); assay: CGRP (h) Eurofins-Cerep binding assay; format: protein-complex assay; parameters: ligand concentration 0.03 nM; conditions: filed as agonist, Compound concentration 10.0 uM
[12] = test system: Phosphatidylinositol 4,5-bisphosphate 3-kinase catalytic subunit alpha isoform (Homo sapiens), P42336 [M1043I]; conditions: Compound concentration 1000.0 nM
[13] = biological target: Ephrin type-A receptor 5 (Homo sapiens) (UniProt P54756); conditions: Compound concentration 1000.0 nM
[14] = biological target: Glycogen synthase kinase-3 alpha (Homo sapiens) (UniProt P49840); conditions: Compound concentration 1000.0 nM
[15] = biological target: Delta-type opioid receptor (Homo sapiens) (UniProt P41143); assay: delta (DOP) (h) Eurofins-Cerep binding assay; parameters: ligand concentration 0.5 nM; conditions: filed as agonist, Compound concentration 10.0 uM
[16] = biological target: Tyrosine-protein kinase receptor UFO (Homo sapiens) (UniProt P30530); conditions: Compound concentration 1000.0 nM
[17] = biological target: Atypical kinase COQ8B, mitochondrial (Homo sapiens) (UniProt Q96D53); conditions: Compound concentration 1000.0 nM
[18] = biological target: Tyrosine-protein kinase Srms (Homo sapiens) (UniProt Q9H3Y6); conditions: Compound concentration 1000.0 nM
[19] = biological target: Membrane-associated tyrosine- and threonine-specific cdc2-inhibitory kinase (Homo sapiens) (UniProt Q99640); conditions: Compound concentration 1000.0 nM
[20] = biological target: 5-hydroxytryptamine receptor 1B (Homo sapiens) (UniProt P28222); assay: 5-HT1B(h) Eurofins-Cerep binding assay; parameters: ligand concentration 1 nM; conditions: filed as antagonist, Compound concentration 10.0 uM
[21] = biological target: Dual specificity protein kinase CLK2 (Homo sapiens) (UniProt P49760); conditions: Compound concentration 1000.0 nM
[22] = biological target: Adenosine receptor A2a (Homo sapiens) (UniProt P29274); assay: A2A (h) Eurofins-Cerep binding assay; parameters: ligand concentration 6 nM; conditions: filed as agonist, Compound concentration 10.0 uM
[23] = biological target: Tyrosine-protein kinase Fyn (Homo sapiens) (UniProt P06241); conditions: Compound concentration 1000.0 nM
[24] = biological target: Phosphatidylinositol 5-phosphate 4-kinase type-2 gamma (Homo sapiens) (UniProt Q8TBX8); conditions: Compound concentration 1000.0 nM
[25] = biological target: T2, Alpha-2B adrenergic receptor (Homo sapiens) (UniProt P18089); assay: Alpha2B (h) Eurofins-Cerep binding assay; parameters: ligand concentration 2.5 nM; conditions: filed as antagonist, Compound concentration 10.0 uM
T2 sequence (whole entry): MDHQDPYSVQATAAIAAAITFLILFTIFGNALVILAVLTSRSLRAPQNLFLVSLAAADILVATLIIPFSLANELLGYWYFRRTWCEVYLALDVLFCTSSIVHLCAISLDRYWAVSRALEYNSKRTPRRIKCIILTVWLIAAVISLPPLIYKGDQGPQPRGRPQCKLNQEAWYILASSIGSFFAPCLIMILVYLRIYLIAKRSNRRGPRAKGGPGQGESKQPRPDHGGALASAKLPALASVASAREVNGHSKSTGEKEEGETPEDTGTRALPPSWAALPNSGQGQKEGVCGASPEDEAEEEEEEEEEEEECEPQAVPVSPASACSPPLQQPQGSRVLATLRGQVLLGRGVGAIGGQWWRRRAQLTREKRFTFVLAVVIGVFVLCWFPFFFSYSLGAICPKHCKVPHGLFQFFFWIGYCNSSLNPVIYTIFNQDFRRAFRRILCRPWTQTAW

[26] = biological target: Tyrosine-protein kinase Blk (Homo sapiens) (UniProt P51451); conditions: Compound concentration 1000.0 nM
[27] = biological target: Angiopoietin-1 receptor (Homo sapiens) (UniProt Q02763); conditions: Compound concentration 1000.0 nM
[28] = biological target: Calcium-dependent protein kinase 1 (Plasmodium falciparum) (UniProt P62344); conditions: Compound concentration 1000.0 nM
[29] = test system: Epidermal growth factor receptor (Homo sapiens), P00533 [G719S]; conditions: Compound concentration 1000.0 nM
[30] = biological target: Calcium/calmodulin-dependent protein kinase kinase 2 (Homo sapiens) (UniProt Q96RR4); conditions: Compound concentration 1000.0 nM
[31] = biological target: Serine/threonine-protein kinase Nek10 (Homo sapiens) (UniProt Q6ZWH5); conditions: Compound concentration 1000.0 nM
[32] = biological target: Mitogen-activated protein kinase 10 (Homo sapiens) (UniProt P53779); conditions: Compound concentration 1000.0 nM

Sequence of Homeodomain-interacting protein kinase 3 (Homo sapiens) (Q9H422 whole entry, looked up): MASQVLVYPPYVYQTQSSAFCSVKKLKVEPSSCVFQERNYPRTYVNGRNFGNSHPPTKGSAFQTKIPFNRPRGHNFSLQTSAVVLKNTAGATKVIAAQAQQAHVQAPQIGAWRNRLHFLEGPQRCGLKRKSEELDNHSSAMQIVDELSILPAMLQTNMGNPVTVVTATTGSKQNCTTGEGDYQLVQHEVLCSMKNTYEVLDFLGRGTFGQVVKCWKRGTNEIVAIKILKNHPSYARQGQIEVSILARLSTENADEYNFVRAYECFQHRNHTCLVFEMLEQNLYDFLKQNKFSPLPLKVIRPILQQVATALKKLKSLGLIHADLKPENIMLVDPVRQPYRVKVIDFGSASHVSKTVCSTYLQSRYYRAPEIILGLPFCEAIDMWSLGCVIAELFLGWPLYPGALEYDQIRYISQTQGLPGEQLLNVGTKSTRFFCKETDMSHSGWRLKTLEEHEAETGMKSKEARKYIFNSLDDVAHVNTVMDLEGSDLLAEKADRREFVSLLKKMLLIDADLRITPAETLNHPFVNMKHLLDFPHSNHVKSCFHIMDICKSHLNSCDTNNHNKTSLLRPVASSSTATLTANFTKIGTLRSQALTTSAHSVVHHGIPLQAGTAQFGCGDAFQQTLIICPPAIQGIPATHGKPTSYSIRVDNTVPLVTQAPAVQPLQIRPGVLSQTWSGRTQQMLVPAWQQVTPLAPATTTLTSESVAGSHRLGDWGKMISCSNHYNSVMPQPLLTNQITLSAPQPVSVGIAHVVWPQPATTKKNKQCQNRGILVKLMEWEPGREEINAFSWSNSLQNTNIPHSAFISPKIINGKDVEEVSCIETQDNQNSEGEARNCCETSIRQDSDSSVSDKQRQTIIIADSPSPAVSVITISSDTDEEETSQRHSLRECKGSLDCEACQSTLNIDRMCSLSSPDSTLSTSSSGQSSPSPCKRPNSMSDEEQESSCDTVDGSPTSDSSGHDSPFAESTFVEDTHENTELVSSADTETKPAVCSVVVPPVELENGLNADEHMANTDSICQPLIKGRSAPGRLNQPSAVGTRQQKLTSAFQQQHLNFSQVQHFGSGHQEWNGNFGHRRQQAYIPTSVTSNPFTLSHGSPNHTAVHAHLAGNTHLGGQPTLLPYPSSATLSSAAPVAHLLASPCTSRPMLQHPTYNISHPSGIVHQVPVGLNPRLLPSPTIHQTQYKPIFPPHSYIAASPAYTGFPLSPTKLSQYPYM
Sequence of Atypical kinase COQ8B, mitochondrial (Homo sapiens) (Q96D53 whole entry): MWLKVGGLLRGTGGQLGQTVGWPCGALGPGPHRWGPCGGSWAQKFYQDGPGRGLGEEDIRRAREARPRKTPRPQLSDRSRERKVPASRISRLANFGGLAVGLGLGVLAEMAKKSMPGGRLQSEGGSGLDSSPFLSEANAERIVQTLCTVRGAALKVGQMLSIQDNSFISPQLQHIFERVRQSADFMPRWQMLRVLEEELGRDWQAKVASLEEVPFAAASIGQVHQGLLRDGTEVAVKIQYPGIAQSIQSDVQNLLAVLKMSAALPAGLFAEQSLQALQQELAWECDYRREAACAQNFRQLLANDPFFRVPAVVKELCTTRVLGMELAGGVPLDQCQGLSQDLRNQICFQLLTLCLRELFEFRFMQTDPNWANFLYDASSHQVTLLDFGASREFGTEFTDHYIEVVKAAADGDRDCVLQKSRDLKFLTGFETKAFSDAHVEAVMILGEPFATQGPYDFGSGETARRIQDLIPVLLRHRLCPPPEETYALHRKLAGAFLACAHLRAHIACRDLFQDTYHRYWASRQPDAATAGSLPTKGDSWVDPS
Sequence of Glycogen synthase kinase-3 alpha (Homo sapiens) (P49840 2-483 limits assumed): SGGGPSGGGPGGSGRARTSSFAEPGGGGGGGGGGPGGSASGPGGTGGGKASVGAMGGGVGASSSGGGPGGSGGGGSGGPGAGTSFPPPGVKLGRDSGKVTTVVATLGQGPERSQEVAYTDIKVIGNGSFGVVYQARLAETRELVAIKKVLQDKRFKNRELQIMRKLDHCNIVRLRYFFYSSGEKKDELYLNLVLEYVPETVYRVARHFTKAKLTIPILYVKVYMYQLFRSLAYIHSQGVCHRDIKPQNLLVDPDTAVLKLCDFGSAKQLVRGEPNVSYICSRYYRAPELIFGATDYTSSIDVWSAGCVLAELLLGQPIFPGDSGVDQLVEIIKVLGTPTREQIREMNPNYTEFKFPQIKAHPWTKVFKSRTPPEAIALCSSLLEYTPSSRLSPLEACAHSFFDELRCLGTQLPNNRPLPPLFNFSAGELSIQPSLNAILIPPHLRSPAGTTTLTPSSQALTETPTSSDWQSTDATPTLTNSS
Sequence of Ephrin type-A receptor 5 (Homo sapiens) (P54756 whole entry): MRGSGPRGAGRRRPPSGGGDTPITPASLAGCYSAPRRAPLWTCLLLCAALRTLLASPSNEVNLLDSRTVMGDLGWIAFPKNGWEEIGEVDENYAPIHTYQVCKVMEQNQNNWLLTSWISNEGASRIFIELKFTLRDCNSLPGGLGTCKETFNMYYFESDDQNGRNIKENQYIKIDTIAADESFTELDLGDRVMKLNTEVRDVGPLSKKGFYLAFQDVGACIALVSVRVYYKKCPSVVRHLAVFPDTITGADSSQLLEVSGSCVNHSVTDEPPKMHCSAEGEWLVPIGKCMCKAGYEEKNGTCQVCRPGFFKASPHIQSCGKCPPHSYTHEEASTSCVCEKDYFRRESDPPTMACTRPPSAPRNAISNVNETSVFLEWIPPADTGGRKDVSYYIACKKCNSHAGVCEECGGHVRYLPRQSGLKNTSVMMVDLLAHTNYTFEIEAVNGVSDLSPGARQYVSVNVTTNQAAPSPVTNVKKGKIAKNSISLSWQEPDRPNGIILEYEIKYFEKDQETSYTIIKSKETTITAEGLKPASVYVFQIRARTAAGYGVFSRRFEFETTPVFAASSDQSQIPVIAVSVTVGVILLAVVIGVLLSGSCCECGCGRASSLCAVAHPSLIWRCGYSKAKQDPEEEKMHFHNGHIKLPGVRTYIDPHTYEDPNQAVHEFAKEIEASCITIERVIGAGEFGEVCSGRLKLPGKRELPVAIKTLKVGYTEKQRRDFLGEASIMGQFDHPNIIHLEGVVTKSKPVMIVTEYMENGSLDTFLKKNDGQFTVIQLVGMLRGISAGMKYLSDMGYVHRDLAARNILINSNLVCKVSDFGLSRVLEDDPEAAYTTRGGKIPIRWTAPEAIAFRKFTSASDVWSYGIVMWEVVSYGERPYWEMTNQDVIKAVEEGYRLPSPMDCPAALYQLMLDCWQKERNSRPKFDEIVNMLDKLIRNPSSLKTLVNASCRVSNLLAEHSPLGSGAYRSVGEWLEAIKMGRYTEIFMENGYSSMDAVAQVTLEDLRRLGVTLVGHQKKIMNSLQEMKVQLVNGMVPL
Sequence of Phosphatidylinositol 4,5-bisphosphate 3-kinase catalytic subunit alpha isoform (Homo sapiens), P42336 [M1043I] (P42336 whole entry M1043I, canonical isoform): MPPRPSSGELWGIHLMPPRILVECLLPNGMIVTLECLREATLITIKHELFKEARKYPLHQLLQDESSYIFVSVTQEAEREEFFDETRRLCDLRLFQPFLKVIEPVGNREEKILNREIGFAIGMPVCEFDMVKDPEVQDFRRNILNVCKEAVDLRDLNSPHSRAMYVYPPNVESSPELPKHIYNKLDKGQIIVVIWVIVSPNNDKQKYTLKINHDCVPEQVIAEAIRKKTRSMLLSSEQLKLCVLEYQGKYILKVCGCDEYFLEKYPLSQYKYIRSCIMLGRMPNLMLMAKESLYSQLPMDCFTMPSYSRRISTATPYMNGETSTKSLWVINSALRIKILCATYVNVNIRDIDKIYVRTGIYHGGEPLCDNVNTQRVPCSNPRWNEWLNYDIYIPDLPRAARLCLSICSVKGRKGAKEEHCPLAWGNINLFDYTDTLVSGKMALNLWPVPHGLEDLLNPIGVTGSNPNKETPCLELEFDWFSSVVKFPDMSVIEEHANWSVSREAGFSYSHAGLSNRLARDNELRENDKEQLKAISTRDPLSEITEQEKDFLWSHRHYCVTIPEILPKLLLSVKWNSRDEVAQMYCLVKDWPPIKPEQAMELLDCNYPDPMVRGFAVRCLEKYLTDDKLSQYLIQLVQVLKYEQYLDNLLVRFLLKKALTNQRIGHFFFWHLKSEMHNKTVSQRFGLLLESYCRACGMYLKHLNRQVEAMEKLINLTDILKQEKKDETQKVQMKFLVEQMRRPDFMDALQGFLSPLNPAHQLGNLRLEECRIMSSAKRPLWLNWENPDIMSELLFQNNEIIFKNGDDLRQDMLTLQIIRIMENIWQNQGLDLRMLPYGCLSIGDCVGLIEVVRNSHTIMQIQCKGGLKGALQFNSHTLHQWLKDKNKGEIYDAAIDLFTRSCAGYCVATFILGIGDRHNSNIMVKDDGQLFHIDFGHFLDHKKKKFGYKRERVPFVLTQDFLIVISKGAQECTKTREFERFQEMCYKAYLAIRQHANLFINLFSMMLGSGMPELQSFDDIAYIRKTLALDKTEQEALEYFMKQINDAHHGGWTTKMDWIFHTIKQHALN
Sequence of Mitogen-activated protein kinase 12 (Homo sapiens) (P53778 whole entry): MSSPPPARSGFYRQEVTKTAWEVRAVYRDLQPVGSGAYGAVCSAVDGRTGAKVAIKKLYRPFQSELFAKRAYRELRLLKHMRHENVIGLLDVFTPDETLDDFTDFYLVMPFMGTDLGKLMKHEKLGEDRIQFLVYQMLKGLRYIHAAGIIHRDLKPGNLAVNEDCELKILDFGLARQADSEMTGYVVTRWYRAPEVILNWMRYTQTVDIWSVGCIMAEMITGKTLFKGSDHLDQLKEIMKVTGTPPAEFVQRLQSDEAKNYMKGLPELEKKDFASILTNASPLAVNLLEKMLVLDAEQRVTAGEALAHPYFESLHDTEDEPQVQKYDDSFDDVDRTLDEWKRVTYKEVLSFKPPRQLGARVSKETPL
Sequence of Phosphatidylinositol 4,5-bisphosphate 3-kinase catalytic subunit alpha isoform (Homo sapiens), P42336 [E545K] (P42336 whole entry E545K, canonical isoform): as the sequence (P42336 whole entry M1043I, canonical isoform) above, with E545K, I1043M counted along it

SMILES | residual activity [1] [%] | residual activity [2] [%] | residual activity [3] [%] | residual activity [4] [%] | % Inhibition of Control Specific Binding (Mean n=2) [5] [%] | residual activity [6] [%] | residual activity [7] [%] | residual activity [8] [%] | residual activity [9] [%] | residual activity [10] [%] | % Inhibition of Control Specific Binding (Mean n=2) [11] [%] | residual activity [12] [%] | residual activity [13] [%] | residual activity [14] [%] | % Inhibition of Control Specific Binding (Mean n=2) [15] [%] | residual activity [16] [%] | residual activity [17] [%] | residual activity [18] [%] | residual activity [19] [%] | % Inhibition of Control Specific Binding (Mean n=2) [20] [%] | also measured
COc1ccc2c(c1)O[C@@H](c1ccc(OC)c(OC)c1)C[C@H]2NC(=O)C1(c2ccc3c(c2)OC(F)(F)O3)CC1 [A-1596586] | 99 | 77 | 86 | 90 | 4.8 | 100 | 100 | 77 | 80 | 67 | -7 | 91 | 100 | 100 | 8.8 | 100 | 100 | 94 | 90 | 2.8 | residual activity [21]: 96%; % Inhibition of Control Specific Binding (Mean n=2) [22]: 11.2%; residual activity [23]: 96%; residual activity [24]: 83%; % Inhibition of Control Specific Binding (Mean n=2) [25]: 63.5%; residual activity [26]: 91%; residual activity [27]: 92%; residual activity [28]: 70%; residual activity [29]: 91%; residual activity [30]: 96%; residual activity [31]: 86%; residual activity [32]: 99%
COc1ccc2c(c1)O[C@H](c1ccc(OC)c(OC)c1)C[C@@H]2NC(=O)C1(c2ccc3c(c2)OC(F)(F)O3)CC1 [A-1596584] | 100 | 91 | 95 | 92 | 17.4 | 100 | 98 | 91 | 88 | 76 | -2.5 | 84 | 100 | 100 | 2.2 | 100 | 63 | 87 | 100 | -8.6 | residual activity [21]: 95%; % Inhibition of Control Specific Binding (Mean n=2) [22]: 7.8%; residual activity [23]: 100%; residual activity [24]: 83%; % Inhibition of Control Specific Binding (Mean n=2) [25]: 36.4%; residual activity [26]: 100%; residual activity [27]: 70%; residual activity [28]: 79%; residual activity [29]: 99%; residual activity [30]: 100%; residual activity [31]: 100%; residual activity [32]: 100%
